# Assay results reported in paper PMC12582985, “Preparation and characterization of renal cell peptides from fetal rats for their antitumor activity” (FEBS Open Bio, 2025).
# What was measured:
# THLE‐2 cells = assay: CCK‐8 cell viability assay, non‐tumor THLE‐2; assay type: cell-based, human; settings: CCK‐8, 48 h, triplicate; peptides 5–45 μg·mL^−1; 5‐FU positive control 0.1–5 mM; vs negative control
# Text: (§1) Human breast cancer MCF‐7 (RRID:CVCL_0031), human lung cancer A549 (RRID:CVCL_0023), human colon cancer HCT‐116 (RRID:CVCL_0291), human cervical cancer Hela (RRID:CVCL_0030), human hepatoma HepG2 (RRID:CVCL_0027), human gastric cancer SGC‐7901 (RRID:CVCL_0520) and human non‐tumor mamma gland epithelial MCF‐10A (RRID:CVCL_0598) and transformed human liver epithelial‐2 (THLE‐2) (RRID:CVCL_3803) cells were obtained from Shanghai Donghuan Biotechnology (Shanghai, China). All cell lines had been authenticated in the past 3 years and again within 4 months after completion of the experiments. All cell lines had been tested for mycoplasma contamination frequently. Their identities were characterized by short tandem repeat analysis. All of these cell lines were cultured in high glucose Dulbecco's modified Eagle's medium supplemented by 10% fetal bovine serum, 100 units·mL^−1 penicillin and 100 μg·mL^−1 streptomycin (complete culture medium).
# (§2) MCF‐7 cells (1 × 10^4 cells per well) were treated in triplicate with different doses of each type of RC extract in 96‐well plates for varying time periods. The negative control cells were treated with the diluent of physiological saline, whereas positive control cells were treated with different concentrations (0.1–5 mM) of 5‐fluorouracil (5‐FU) (Leica, Wetzlar, Germany). During the last hour of culture, each well of cells was treated with 10 μL of CCK‐8 solution. The absorbance of the supernatants of individual wells was measured at 450 nm using a microplate reader. Similarly, the effect of different synthesized RCPs (5–45 μg·mL^−1) on the viability of different types of human cancer cells was tested with CCK‐8 assays using the diluent of physiological saline containing the same concentration of dimethylsulfoxide as a negative control and the same concentrations of 5‐FU as the positive controls. Ten RCPs with a predicted strong bioactivity were synthesized by GenScript ([…]) and their purity, sequences and solubility are shown in Table 1. […] The formula used to calculate the cytotoxicity rate of each concentration of RCP was: Cytotoxicity rate (%) = (absorbance value of the control group − absorbance value of the experimental group)/absorbance value of the control group × 100%. In addition, MCF‐7 cells were treated with each type of RCP at 45 μg·mL^−1 for 12–72 h and the dynamic impact of RCP treatment on the viability of MCF‐7 cells was determined every 12 h using CCK‐8 assays.
# (§3) Data are expressed as the mean ± SEM. The data distribution was analyzed by Shapiro–Wilk test. The IC50 values of each peptide for individual cell lines were determined using the PRISM, version 8 (GraphPad Software Inc.). Briefly, all dose–response data were converted into […], which were automatically analyzed by PRISM for non‐linear regression to determine and report the IC50 and its SD for each peptide in a specific cell line. The difference among groups was analyzed by analysis of variance and post‐hoc Tukey's tests and the comparison between groups was performed using Student's t‐test and PRISM, version 8 (GraphPad Software Inc.). P < 0.05 was considered statistically significant.
# A549 cells = assay: CCK‐8 cell viability assay, A549; assay type: cell-based, human; settings: CCK‐8, 48 h, triplicate; peptides 5–45 μg·mL^−1; 5‐FU positive control 0.1–5 mM; vs negative control
# Text: as §1, §2, §3
# MCF‐10A cells = assay: CCK‐8 cell viability assay, non‐tumor MCF‐10A; assay type: cell-based, human; settings: CCK‐8, 48 h, triplicate; peptides 5–45 μg·mL^−1; 5‐FU positive control 0.1–5 mM; vs negative control
# Text: as §1, §2, §3
# HepG2 cells = assay: CCK‐8 cell viability assay, HepG2; assay type: cell-based, human; settings: CCK‐8, 48 h, triplicate; peptides 5–45 μg·mL^−1; 5‐FU positive control 0.1–5 mM; vs negative control
# Text: as §1, §2, §3
# SGC‐7901 cells = assay: CCK‐8 cell viability assay, SGC‐7901; assay type: cell-based, human; settings: CCK‐8, 48 h, triplicate; peptides 5–45 μg·mL^−1; 5‐FU positive control 0.1–5 mM; vs negative control
# Text: as §1, §2, §3
# [1] = system: cancer cells (MCF‐7, A549, HCT‐116, Hela, HepG2, SGC‐7901) vs non‐tumor MCF‐10A and THLE‐2 cells; assay: CCK‐8 cytotoxicity, preference for cancer cells over non‐tumor cells; assay type: cell-based, human; set-up: cytotoxicity against non‐tumor MCF‐10A and THLE‐2 cells compared with tumor cell lines: dose or concentration left out as unconfirmed; settings: for preference of cytotoxicity for cancer cells over non‐tumor cells: 5–45 μg·mL^−1, 48 h, CCK‐8; for cytotoxicity against non‐tumor MCF‐10A and THLE‐2 cells compared with tumor cell lines: 48 h, P < 0.05 or P < 0.01
# Text: as §1, §2, §3
# HCT‐116 cells = assay: CCK‐8 cell viability assay, HCT‐116; assay type: cell-based, human; settings: CCK‐8, 48 h, triplicate; peptides 5–45 μg·mL^−1; 5‐FU positive control 0.1–5 mM; vs negative control
# Text: as §1, §2, §3
# [2] = Solubility of the synthesized peptides; assay type: physicochemical; settings: for aqueous solubility: in words; for Solubility: solvent given for the synthesized peptide (GenScript)
# Hela cells = assay: CCK‐8 cell viability assay, Hela; assay type: cell-based, human; settings: CCK‐8, 48 h, triplicate; peptides 5–45 μg·mL^−1; 5‐FU positive control 0.1–5 mM; vs negative control
# Text: as §1, §2, §3
# MCF‐7 cells = assay: CCK‐8 cell viability assay, MCF‐7; assay type: cell-based, human; settings: for dynamic cytotoxicity against MCF‐7 cells: 45 μg·mL^−1, 12–72 h, CCK‐8 every 12 h, maintained at highest levels to 72 h; for viability of MCF‐7 cells: CCK‐8, 48 h, triplicate, peptides 5–45 μg·mL^−1, 5‐FU positive control 0.1–5 mM, vs negative control
# Text: as §1, §2, §3
Sequence,viability of non‐tumor THLE‐2 cells (THLE‐2 cells),viability of A549 cells (A549 cells),viability of non‐tumor MCF‐10A cells (MCF‐10A cells),viability of HepG2 cells (HepG2 cells),viability of SGC‐7901 cells (SGC‐7901 cells),preference of cytotoxicity for cancer cells over non‐tumor cells [1],cytotoxicity against non‐tumor MCF‐10A and THLE‐2 cells compared with tumor cell lines [1],viability of HCT‐116 cells (HCT‐116 cells),aqueous solubility [2],Solubility [2],viability of Hela cells (Hela cells),dynamic cytotoxicity against MCF‐7 cells (MCF‐7 cells),viability of MCF‐7 cells (MCF‐7 cells)
"QQHMKFGKKCWRKVWALLYA [RCP‐1, synthesized 20‐mer renal cell peptide from Docking protein 3, trypsin digested]",only treatment with the highest doses of them slightly reduced the viability,significantly decreased the viability,only treatment with the highest doses of them slightly reduced the viability,significantly decreased the viability,significantly decreased the viability,potent cytotoxicity preferably against cancer cells,statistically lower than tumor cell lines,significantly decreased the viability,low aqueous solubility,0.1% Dimethylsulfoxide,significantly decreased the viability,increased with time from 12 h post treatment to 48 h,significantly decreased the viability
"RFFESFGDL [RCP‐7, synthesized 9‐mer renal cell peptide from GLOBIN domain‐containing protein, protamex‐digested]",decreased the viability,decreased the viability,decreased the viability,decreased the viability,decreased the viability,did not preferably decrease the viability of tumor cells,,decreased the viability,,0.1% Dimethylsulfoxide,decreased the viability,,decreased the viability
"SSGCPPLPPRRGAPAGWLSH [RCP‐2, synthesized 20‐mer renal cell peptide from Brain‐derived neurotrophic factor, trypsin digested]",decreased the viability,decreased the viability,decreased the viability,decreased the viability,decreased the viability,did not preferably decrease the viability of tumor cells,,decreased the viability,,"Water, pH 7.0",decreased the viability,,decreased the viability
"VCMRVCRTWSRWCYDKRLWP [RCP‐5, synthesized 20‐mer renal cell peptide from F‐box and leucine‐rich repeat protein 19, trypsin digested]",only treatment with the highest doses of them slightly reduced the viability,significantly decreased the viability,only treatment with the highest doses of them slightly reduced the viability,significantly decreased the viability,significantly decreased the viability,potent cytotoxicity preferably against cancer cells,statistically lower than tumor cell lines,significantly decreased the viability,low aqueous solubility,0.1% Dimethylsulfoxide,significantly decreased the viability,increased with time from 12 h post treatment to 48 h,significantly decreased the viability
